Tests used:
BA/F3 cell line = test: BA/F3 viability assay; conditions: Mus musculus, BaF3, 48 h, read-out: BA/F3 IC50
human JAK3 = target: T1, human JAK3 (Homo sapiens, UniProt P52333); test: JAK3 inhibition assay; format: biochemical; conditions: recombinant human JAK3 catalytic domain; polyGT substrate
T1 construct: catalytic domain (amino acids 781-1124; catalog number PV3855); purchased Invitrogen PV3855
How it was run: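 Radiometric kinase assay: 0.5 ng JAK3 with 2.5 μg polyGT in Tris pH 7.5/MgCl2 buffer, 1 μM ATP plus 0.25 μCi 33P-γ-ATP, 1% DMSO, 45 min at 30 °C, stopped with phosphoric acid.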

human TYK2 = target: T2, human TYK2 (Homo sapiens, UniProt P29597); test: TYK2 inhibition assay; format: biochemical; conditions: recombinant human TYK2 catalytic domain, polyGT substrate
T2 construct: catalytic domain (amino acids 871-1187; catalog number 08-147); purchased Carna Biosciences 08-147
T2 sequence (P29597 871-1187): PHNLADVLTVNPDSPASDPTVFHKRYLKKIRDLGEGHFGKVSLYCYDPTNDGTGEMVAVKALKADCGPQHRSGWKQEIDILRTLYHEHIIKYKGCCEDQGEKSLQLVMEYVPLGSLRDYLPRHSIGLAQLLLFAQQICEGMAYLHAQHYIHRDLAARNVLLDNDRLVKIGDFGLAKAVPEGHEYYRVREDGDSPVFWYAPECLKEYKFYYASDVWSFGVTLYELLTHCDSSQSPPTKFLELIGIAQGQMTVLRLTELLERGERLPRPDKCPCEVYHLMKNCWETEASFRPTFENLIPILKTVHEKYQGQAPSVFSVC
How it was run: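 Radiometric kinase reaction run 90 min at 30 °C, stopped with phosphoric acid, washed and scintillation-counted.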

CTLL-2 cell line = test: CTLL2 viability assay; format: cell-based; conditions: Mus musculus, IL-2 dependent CTLL2 viability, 24 h, ATP-lite
From the text: The protocol describes the methods to analyse the activity of compounds on their ability to sustain the IL2-dependent viability of CTLL2.
Final DMSO concentration was 0.1%.

T1 sequence (P52333 781-1124): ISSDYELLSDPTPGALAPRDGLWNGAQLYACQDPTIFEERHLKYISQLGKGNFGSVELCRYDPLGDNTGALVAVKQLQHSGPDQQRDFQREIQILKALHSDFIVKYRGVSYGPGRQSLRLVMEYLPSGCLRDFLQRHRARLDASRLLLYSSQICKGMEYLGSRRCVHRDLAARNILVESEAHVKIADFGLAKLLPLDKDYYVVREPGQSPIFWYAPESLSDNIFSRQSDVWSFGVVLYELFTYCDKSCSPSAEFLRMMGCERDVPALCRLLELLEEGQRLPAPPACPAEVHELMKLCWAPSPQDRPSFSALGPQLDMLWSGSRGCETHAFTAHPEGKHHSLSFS

Row | IC50 (BA/F3 cell line) [nM] | IC50 (human JAK3) [nM] | IC50 (human TYK2) [nM] | Compound | IC50 (CTLL-2 cell line) [nM]
1 | > 5000 | 101 to 500 | 101 to 500 | CCc1cc(CNS(C)(=O)=O)c(F)cc1N(C)c1cc2c(cn1)ncn2C [Compound 325, N-{5-Ethyl-2-fluoro-4-[methyl-(1-methyl-1H-imidazo[4,5-c]pyridin-6-yl)-amino]-benzyl}-methanesulfonamide] | > 1000
2 | > 5000 | > 1000 | > 1000 | CCc1cc(C2CN(S(=O)(=O)C(F)F)C2)ncc1N(C)c1cc2c(cn1)ncn2C [Compound 329, {6-[1-(Difluoro-methanesulfonyl)-azetidin-3-yl]-4-ethyl-pyridin-3-yl}-methyl-(1-methyl-1H-imidazo[4,5-c]pyridin-6-yl)-amine] | 501 to 1000
3 | > 5000 | > 1000 | 0.01 to 100 | CCc1cc(-c2cnc(NC(C)=O)nc2)ccc1N(C)c1cc2c(cn1)ncn2C [Compound 115, N-(5-(3-Ethyl-4-(methyl(1-methyl-1H-imidazo[4,5-c]pyridin-6-yl)amino)phenyl)pyrimidin-2-yl)acetamide] | > 1000
4 | > 5000 | 101 to 500 | 0.01 to 100 | CCc1cc(CO)ccc1N(C)c1cc2c(cn1)ncn2C [Compound 81, (3-Ethyl-4-(methyl(1-methyl-1H-imidazo[4,5-c]pyridin-6-yl)amino)phenyl)MeOH] | > 1000
5 | 1000 to 5000 | 0.01 to 100 | 0.01 to 100 | CCc1cc(CN(C)S(C)(=O)=O)c(F)cc1N(C)c1cc2c(cn1)ncn2C [Compound 319, N-{5-Ethyl-2-fluoro-4-[methyl-(1-methyl-1H-imidazo[4,5-c]pyridin-6-yl)-amino]-benzyl}-N-methyl-methanesulfonamide] | > 1000
6 | > 5000 | 101 to 500 | 0.01 to 100 | CCc1cc(C(C)O)ccc1N(C)c1cc2c(cn1)ncn2C (stereo not drawn) [Compound 101, 1-(3-Ethyl-4-(methyl(1-methyl-1H-imidazo[4,5-c]pyridin-6-yl)amino)phenyl)ethanol] | > 1000
7 | > 5000 | > 1000 | 0.01 to 100 | CCc1cc(-c2cncnc2)ccc1N(C)c1cc2c(cn1)ncn2C [Compound 95, N-(2-ethyl-4-(pyrimidin-5-yl)phenyl)-N,1-dimethyl-1H-imidazo[4,5-c]pyridin-6-amine] | > 1000
8 | > 5000 | > 1000 | 501 to 1000 | CCc1cc(C2CN(S(C)(=O)=O)C2)ncc1N(C)c1cc2c(cn1)ncn2C [Compound 328, [4-Ethyl-6-(1-methanesulfonyl-azetidin-3-yl)-pyridin-3-yl]-methyl-(1-methyl-1H-imidazo[4,5-c]pyridin-6-yl)-amine] | > 1000
9 | > 5000 | 0.01 to 100 | 0.01 to 100 | CCc1cc(CNS(C)(=O)=O)cc(F)c1N(C)c1cc2c(cn1)ncn2C [Compound 323, N-{3-Ethyl-5-fluoro-4-[methyl-(1-methyl-1H-imidazo[4,5-c]pyridin-6-yl)-amino]-benzyl}-methanesulfonamide] | > 1000

— US20130217664A1, “NOVEL COMPOUNDS USEFUL FOR THE TREATMENT OF DEGENERATIVE AND INFLAMMATORY DISEASES” (priority 2012, published 2013)
